Where two headings read alike, the source gives them in different places.
Tests used:
mice and rats = conditions: cited from earlier work
domestic flies [1] = assay: Insecticidal activity, large-scale test in living and industrial premises; type: in vivo; conditions: 0.25% solution with 5% glucose solution, 2-3 dishes per 20 m2; 72 hours
Description: The large-scale tests of the activity of the insecticidal composition, according to the invention, was conducted on domestic flies in living and industrial premises. Petri dishes containing a 0.25% aqueous solution of the insecticide, according to the invention, added with a 5% glucose solution, were put at a rate of 2-3 dishes per 20 m2. The .activity of the composition of the invention was estimated by a direct count of dead insects in 72 hours or by using the adhesive tapes, counting the number of flies on the tape prior and after carrying out the test.

domestic flies [2] = assay: Insecticidal activity, laboratory test in gauze boxes; type: in vivo; conditions: 0.25% solution in 5% aqueous glucose solution; death rate estimated in 48 - 72 hours
Description: An insecticidal composition based thereon, which was a 0.25% solution of this compound in a 5% aqueous glucose solution, was prepared. The laboratory and large-scale tests of the activity of an insecticidal composition of the invention was conducted on domestic flies. for laboratory tests into the gauze-made boxes (10x10 cm, 6 boxes), there were placed 6-7-day flies of both sexes by 50 individuals per each box. Into 5 boxes there were placed Petri dishes containing the insecticidal composition of the invention. The death rate of flies was estimated-in 48 - 72 hours. A Petri dish containing a 5% aqueous solution of glucose was placed into the control box. The insecticidal activity of the composition, according to the invention, was tested in comparison with a known insecticidal composition containing 0,0-dimethyl-/1-hydroay-2,2-trichloroethyl/phosphonate.

[3] = Solubility in water and organic solvents; type: physicochemical; conditions: qualitative, solvents named
[4] = tested on: leaves of tomatoes and cucumbers; assay: Phytotoxicity of the nematocidal composition; type: in vivo; conditions: 1% solution in water
poliomyelitis virus = assay: microbe, parasite or virus in culture; type: cell-based, poliomyelitis-II virus; conditions: concentration 1 %
hepatitis B virus = assay: Virucidal activity, suspension method under protein loading, counter-current immunoelectrophoresis; conditions: concentration 1 %
pig ascarid ovigerms = assay: Ovocidal activity on watch glasses, 2% solution; type: in vivo; conditions: concentration 2 %
Description: An ovocidal composition based on this compound was prepared in the form of a 2% solution thereof in distilled water. An ovocidal activity of the composition, according to the invention, was tested as follows.
A drop of a suspension containing at least 1.000 ascarid ovigerms was placed onto the watch glasses followed by adding thereto by 1 ml of the composition of the invention. Thereafter the watch glasses were put them into a humid chamber of a thermostat at a temperature of 24 - 26 °C. In every […] the watch glasses with ascarid ovigerms and with the composition of the invention were withdrawn from the thermostat and washed with distilled water for 2-3 times.
Then, the washed ascaride ovigerms were cultured for 30 days at a temperature of 24 - 26 °C. To determine the number of dead and viable ovigerms 200 ova were visualized under a microscope in every 3-5 days. Their death was determined by lack of the development of ovigerms up to the stage of larva and the.presence of destructive morphological changes for 30 days. An ovocidal activity of known composition based.on carbathion was determined by the same procedure. Control was carried out under the same conditions by adding a physiological saly solution. The death percentage of ova was estimated as a mean value of three results with the correction for death of ovigerms in the control and in comparison with the known compositions.

influenza A virus = assay: microbe, parasite or virus in culture; set-up: species or system strain of influenza A1 virus; conditions: concentration 1 %
tomato nematodes = assay: Nematocidal activity, field test on 5 m2 plots; type: in vivo; conditions: 1% solution in water, read-out: Larva death, % Tests field
Description: (§1) The process was carried out in manner similar to that described in Example 3. […] The insecticidal activity was tested in a manner similar to that described in Example 3. A nematocidal composition based on the compound.-was prepared which was its 1% solution in water. A nematocidal effect of the composition was tested in laboratory conditions to the invasion larvae of a root-knot nematode. For testing it, one drop of a suspension containing 100 invasion larvae of root-knot nematodes was placed onto the cover glasses having cells. Thereafter, one drop of the nematocidal composition of the invention was put thereto. One drop of distilled water instead of the test composition was placed into the control cell..The glasses with test and control cells were put on a moisten ashless filter of a Petri dish, and 24 hrs later the killed nematodes were registered. The tests were repeated three times. The nematocidal activity of the composition, according to the invention was tested in comparison with the known nematocidal preparation containing 0,0-dimethyl-0-2,2/dichlorovinyl/phosphate. The field tests were carried out at the 5 m^2 plots affected by tomato nematodes. For testing it, the plots were treated with the nematocidal composition of the invention and the known nematocidal composition.

[5] = tested on: invasion larvae of a root-knot nematode; assay: Nematocidal activity, laboratory test; type: in vivo; conditions: Meloidogyne javanica; 1% solution in water; 24 hrs; read-out: Larva death, % Tests laboratory
Description: as §1

pig ascaride ovigerms = assay: Ovocidal activity on watch glasses, 3% solution, laboratory test; type: in vivo; conditions: Sus scrofa, read-out: % Death of ovigerms Tests laboratory
Description: A drop of a suspension containing at least 1,000 ascarid ovigerms was placed onto watch glasses followed by adding one droplet of a 3% solution of the composition of the invention. Thereafter, they were put into a humid chamber of a thermostat at a temperature of 24-26 °C. In every 24 hours during 3 days the watch glasses with ascarid ova and the composition of the invention were withdrawn from the thermostat and washed with distilled water 2-3 times.
Then, the washed ascarid ovigerms were incubated for 30 days at a temperature of 24 - 26-°C. To determine the number of dead and viable ova, 200 ovigerms were observed by means of a microscope every 3 - 5 days. The death was determined by lack of ova development for 30 days up to the stage of a mobile larva and the presence of destructive morphological changes: shrinkage and deformation of embryos, rupture of shells. The known composition - carbathion was tested under the same conditions by adding a solvent. The percentage death of ova was estimated as a mean value of three results with a correction for ova death in the control and_in-comparison with the known composition.

helminthic ova = assay: Ovocidal activity, large-scale disinfection of ambient objects; conditions: 3% aqueous solution; ambient objects (equipment, tableware, hands); read-out: % Death of ovigerms Tests large-scale
Description: Based on this compound, there was prepared the ovocidal composition in the form of 3% solution thereof. The ovocidal activity of the composition, according to the invention, was tested disinfection of ambient objects (equipment, tableware, hands). For this purpose, a 3% aqueous solution of the compound, according to the invention, was used for treating said objects. The. efficiency of the ovocidal action was determined by the number of helminthic ova in washings from the ambient objects before and after treating them with the ovocidal composition of the invention.

[6] = 24 h, read-out: Death of ascarid ovigerms (%) in 24 h
[7] = 48 h, read-out: Death of ascarid ovigerms (%) in 48 h

Row | Compound | Death of flies, % Tests large-scale (domestic flies [1]) | Death of flies, % Tests laboratory (domestic flies [2]) | solubility [3] | killing at 2 % (pig ascarid ovigerms; [6]) | killing at 2 % (pig ascarid ovigerms; [7]) | mortality at 1 % (tomato nematodes) | killing at 1 % [5] | killing at 3 % (pig ascaride ovigerms) | killing at 3 % (helminthic ova) | also measured
1 | 0,0-dimethyl(1-hydroxy-2,2,2-trichloroethyl) phosphonate [Known insecticidal composition] | 83% | 85% |  |  |  |  |  |  |  | LDSO (mice and rats): 225 to 1200 mg/kg
2 | O=C(N=P(OC(CCl)c1ccccc1)(OC(CCl)c1ccccc1)OC(CCl)c1ccccc1)c1ccccc1 (stereo not drawn) [Example 3, tris/2-chloro-1-phenylethoxy/phosphazobenzoyl] | 100% | 100% | soluble in water, alcohols, acetone, benzene, toluene | 68.1% | 93.4% | 100% | 100% |  |  | phytotoxic effects on the leaves of tomatoes and cucumbers [4]: no phytotoxic effects; killing at 1 % (poliomyelitis virus; 10 min, 10 min, read-out: Death of viruses (%) under exposure, Poliomyelitis, 10 min): 20%; killing at 1 % (poliomyelitis virus; 0.5 h, 30 min, read-out: Death of viruses (%) under exposure, Poliomyelitis, 30 min): 50%; killing at 1 % (poliomyelitis virus; 1 h, 60 min, read-out: Death of viruses (%) under exposure, Poliomyelitis, 60 min): 70%; killing at 1 % (hepatitis B virus; 0.25 h, 15 min, read-out: Death of viruses (%) under exposure, Hepatitis B, 15 min): 75%; killing at 1 % (hepatitis B virus; 0.5 h, 30 min, read-out: Death of viruses (%) under exposure, Hepatitis B, 30 min): 100%; killing at 1 % (hepatitis B virus; 1 h, 60 min, read-out: Death of viruses (%) under exposure, Hepatitis B, 60 min): 100%; killing at 2 % (pig ascarid ovigerms; 72 h, read-out: Death of ascarid ovigerms (%) in 72 h): 100%; killing at 1 % (influenza A virus; 0.25 h, 15 min, read-out: Death of viruses (%) under exposure, Influenza A, 15 min): 30%; killing at 1 % (influenza A virus; 0.5 h, 30 min, read-out: Death of viruses (%) under exposure, Influenza A, 30 min): 50%; killing at 1 % (influenza A virus; 1 h, 60 min, read-out: Death of viruses (%) under exposure, Influenza A, 60 min): 100%
3 | O=C(N[C@H](COP(=NC(=O)C(Cl)(Cl)Cl)(OC[C@@H](NC(=O)C(Cl)Cl)[C@H](O)c1ccc([N+](=O)[O-])cc1)OC[C@@H](NC(=O)C(Cl)Cl)[C@H](O)c1ccc([N+](=O)[O-])cc1)[C@H](O)c1ccc([N+](=O)[O-])cc1)C(Cl)Cl [Example 7, d(-)--threo-3-para-nitrophenyl-2-dichloroacetamido-3-hydroxypro-poxyphosphazotrichloroacetyl] |  |  | soluble.in water, alcohols, acetone,--benzene, toluene |  |  |  |  | 100% | 98% | 
4 | COP(=O)(OC)OC=C(Cl)Cl [Known nematocidal preparation, 0,0-dimethyl-0-/2,2-dichlorovinyl/phosphate] |  |  |  |  |  | 76% | 88.1% |  |  | 
5 | CNC(=S)S [carbathion, sodium N-methyldithiocarbamate dihydrate] |  |  |  | 60% | 80% |  |  | 60% | 59% | 

Source: patent publication EP0407582A1, “DERIVATIVES OF TRICHLOROPHOSPHAS[…] INSECTICIDAL, VIRICIDAL, HEMATOCIDAL, FUNGICIDAL AND OVOCIDAL PREPARATIONS BASED ON THEM” (priority 1989, dated 1990)
